From the METLIN SMRT retention time set (Domingo-Almenara et al. 2019) come the findings set out here.

A short description of the data set: gradient 5% acetonitrile 3 min, to 50% in 2 min, to 85% in 15 min, held 3 min, 100 µL/min. The settings on record: column: Zorbax Extend-C18 2.1 x 50 mm; eluents: water / acetonitrile, 0.1% formic acid. The essentials: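 Pure standards were analyzed in mixtures of ~100 molecules using HPLC coupled to a quadrupole time-of-flight mass spectrometer, in both positive and negative ionization mode. Separation used a Zorbax Extend-C18 column (2.1 × 50 mm, 1.8 μm) at 100 μL/min, with water and acetonitrile each containing 0.1% formic acid. Dead and dwell volumes were 40 μL and 900 μL, and data were collected over 3 months. Retention time was read from computationally picked adduct peaks, each inspected manually.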
On to `O=C(CN1C(=O)C(O)(c2cccc(F)c2)c2ccccc21)NCCC1=CCCCC1` (centres undefined), for which the RP-LC retention time came out at 965 s.

Consider `COc1ccc(NC(=O)Cn2ccc3ccn(Cc4ccccc4)c3c2=O)cc1OC`, for which the RP-LC retention time was 859 s. Next, `CC(Oc1ccccc1Cl)C(=O)NCCn1cnc(-c2ccccc2)cc1=O` (centres undefined): 790 s; `Cc1nc(-c2noc(-c3cccnc3)n2)cn1CC(=O)NCc1cccs1`: 662 s.

Compound `O=C(NCc1ccc(F)cc1)c1cc(-c2ccc(F)cc2)ns1` showed an RP-LC retention time of 1030 s.

`Cc1nn(-c2nc(-c3ccc(Cl)cc3)cs2)c(C)c1CC(=O)N1CCCC1` yielded an RP-LC retention time of 1120 s. As for `CCn1c(C(=O)NCCCN2CCCC(C)C2)cc2cc(S(=O)(=O)N(C)C)ccc21` (centres undefined), the figure is 677 s. As for `O=C(CCNc1c(-c2cccc(F)c2)nc2cnccn12)N1CCCC1`, the figure is 670 s; as for `CCCn1cc(CCNS(=O)(=O)c2ccc(C(C)C)cc2)c2cccnc21`, 1030 s. Turning to `O=C(NCC(=O)N1CCCc2ccccc21)c1ccccc1`, the RP-LC retention time came to 777 s.

On to `COc1ccc(Cl)cc1NC(=O)c1[nH]c(C)c(S(=O)(=O)N2CCCC2)c1C`, for which the RP-LC retention time was determined as 1040 s. Next, `O=S(=O)(c1cc(-c2noc(C3CCCC3)n2)cs1)N1CCCCC1`: 1240 s; `O=C(CN1CCN(Cc2ccccc2F)C1=O)NCc1ccc(F)cc1`: 808 s; `O=C(Nc1ccc(N2CCOCC2)cc1)C1CCN(c2cncnc2N2CCCC2)CC1`: 602 s. As for `Cc1cc(N2CCN(S(=O)(=O)c3ccc(Cl)cc3)CC2)nc(NC2CCCCC2)n1`, the figure is 884 s; as for `Clc1ccc(-c2ccc(CNCc3ccc4c(c3)OCO4)o2)cc1`, 762 s.

In the case of `CCCCN(C)CCNC(=O)C1c2ccccc2C(=O)N2CCc3cc(OC)c(OC)cc3C12` (centres undefined), the RP-LC retention time was determined as 633 s. Next, `COc1cccc(CNC(=O)c2ccc3c(c2)N(C)C(=O)c2ccccc2O3)c1`: 852 s; `COc1ccc(CCc2nc3cc(-c4c(C)noc4C)ccc3n2C[C@H](C)N2CCOCC2)cc1Cl`: 742 s; `CC(=O)N1CCN(c2nc3c(s2)CC(C(=O)Nc2cccc4c2CCCC4)CC3)CC1` (centres undefined): 632 s. `COC(=O)Cn1c(C)cc(=O)n2nc(-c3cccc(C)c3)nc12` returned an RP-LC retention time of 784 s.

`Cc1cc(C)nc(NS(=O)(=O)c2ccc(Nc3nc(-c4ccc(C)c(C)c4)cs3)cc2)n1` returned an RP-LC retention time of 1020 s. On to `CCS(=O)(=O)N(C1CC1)C1CCOC2(CCN(C(=O)C3CC3)CC2)C1` (centres undefined), for which the RP-LC retention time turned out to be 710 s. As to `COc1ccc(CNc2nc3ccncc3n(Cc3ccccc3)c2=O)cc1`, the RP-LC retention time is 710 s. Next, `CC(C)Sc1cc(NCCCO)c([N+](=O)[O-])c2nonc12`: 723 s; `CCCCCOC(=O)c1ccc(Nc2nc(C(=O)OCC)nc3ccccc23)cc1`: 1160 s; `Cc1cc(=O)n(CC(=O)Nc2ccc(Br)cc2F)c(N2CCc3ccccc3C2)n1`: 953 s.

Compound `O=C(NCC1CCCO1)C1COC2(CCN(C(=O)C3CC3)CC2)N1C(=O)c1ccccc1` (centres undefined) had an RP-LC retention time of 608 s. As for `Cc1c(C(=O)NC2CC2)cnn1-c1cc(-c2nc(C3CC3)no2)ccn1`, the figure is 843 s; as for `Cc1cc(N2CCN(C(=O)c3ccccc3F)CC2)nc(N2CCOCC2)n1`, 608 s. `COc1ccc(CC(=O)N2CCN(c3ccc(-c4nc(C)cs4)cn3)CC2)cc1` gave an RP-LC retention time of 851 s.

`COc1ccc(-c2c(C(=O)NCc3cccnc3)nn3c(C)cc(C)nc23)cc1S(=O)(=O)N1CCCC1` displayed an RP-LC retention time of 638 s. In turn, `CC(=O)Nc1nnc(C2=COCCO2)o1` had an RP-LC retention time of 515 s. In turn, `CCCc1nc2ccc(NC(=O)NCC)cc2c(=O)n1Cc1ccc(-c2ccccc2)cc1` showed an RP-LC retention time of 996 s. For `CC1(C)CC(=O)c2cn(-c3ccc(F)cc3)c(=O)c(C(=O)N3CCN(c4ccccn4)CC3)c2C1`, the RP-LC retention time worked out at 636 s. For `CN(C)CCNC(=O)c1cc2cc(S(=O)(=O)N(C)C)ccc2n1Cc1ccccc1`, the RP-LC retention time is 674 s. Regarding `CC(C)n1nc2c(S(=O)(=O)N3CCOCC3)cccn2c1=O`, the RP-LC retention time came out at 670 s. Next, `Cc1c(C(=O)NCC2CC2)cnn1-c1ccc(-c2nc(C(C)(C)C)no2)cn1`: 1020 s; `Cc1ccc(CNC(=O)C2CCN(C(=O)C3Sc4ccccc4NC3=O)CC2)cc1` (centres undefined): 818 s. As for `CCOC(=O)C1=Cc2ccc(C(F)(F)C(F)(F)F)cc2N=C(N)C1`, the figure is 794 s; as for `Cc1ccc(-c2nc3cnccn3c2Nc2ccc(C(C)C)cc2)cc1`, 1140 s; as for `Cc1cc(=O)n(CC(=O)Nc2ccc(Cl)cc2)c(N2CCCC2)n1`, 672 s. As for `O=C(Cn1ccn2nc(-c3ccccc3)c(CO)c2c1=O)Nc1cccc(Br)c1`, the figure is 868 s.

Compound `O=C(CSc1ncn[nH]1)Nc1ccc2c(c1)OCCO2` displayed an RP-LC retention time of 591 s. For the compound `CS(=O)(=O)N1CCCC(c2nnc(-c3ccccc3F)s2)C1` (centres undefined), the RP-LC retention time is 757 s. `CCc1ccc(NC(=O)c2c(C)oc3c2C2=NC(CC)CN2C=N3)cc1` (centres undefined) displayed an RP-LC retention time of 712 s. In turn, `O=C(O)CCC1CCN(S(=O)(=O)c2ccccc2)CC1` showed an RP-LC retention time of 739 s. In turn, `Cc1cc(=O)n2nc(-c3ccc(Cl)cc3)nc2n1CC(=O)N1CCN(c2ccc(F)cc2)CC1` came in with an RP-LC retention time of 933 s. As for `COc1nn(C)cc1C(=O)NCCn1nc(-c2cccs2)ccc1=O`, the figure is 605 s; as for `Cn1cc(-c2cc3n(n2)CCCN3C(=O)CCC(=O)N2CCN(c3ccccc3)CC2)c2ccccc21`, 840 s; as for `CC(C)CN1CCn2cc(C(=O)N3CCN(c4ccc(F)cc4)CC3)nc2C1`, 613 s. Compound `CN(C)S(=O)(=O)N(CC(=O)Nc1cc(C(F)(F)F)ccc1Cl)c1ccccc1` displayed an RP-LC retention time of 1090 s. On to `Cc1ccc(-c2csc(NC(=O)C(C)(C)C)n2)cc1`, for which the RP-LC retention time amounted to 1080 s. For the compound `CCCC(=O)Nc1ccc(CCc2nc3ccc(C(=O)NCc4ccco4)cc3[nH]2)cc1`, the RP-LC retention time came out at 635 s. As for `Cc1nc2cccnc2n1CCN1CCN(C(=O)Nc2ccc(F)cc2F)CC1`, the figure is 585 s; as for `Cc1cccc2c1CCN(C(=O)c1ccco1)[C@@H]2C`, 931 s. Turning to `O=C(c1cc(-c2ccco2)[nH]n1)N1CCN(c2ncccn2)CC1`, the RP-LC retention time is 640 s.

In the case of `Cc1sc(C)c(S(=O)(=O)Nc2ccc(F)cc2)c1-c1cc(C(F)(F)F)on1`, the RP-LC retention time was found to be 1140 s. As for `COC(=O)c1cccc(NC(=O)c2c(O)c3cccnc3n(-c3ccc(F)cc3)c2=O)c1`, the figure is 1190 s.
